Experimental data: patent US20050175555A1, “Polyunsaturated linear aldehydes and their derivatives with anti-radical and anti-tumoral activity” (priority 2002, published 2005)

Tested on: UV-induced erythema
Experiment: UV-induced erythema prevention test
Type: in vivo
Conditions: guinea pig ear, UV lamp 30 sec, 10% suspension topical, approx. 3 hours
Procedure: UV-induced erythema was caused by applying a UV lamp (Hanoivna Kramager) to the ear of a guinea pig for 30 sec; the lamp transmitted rays with a wavelength of […], which consequently included UV-B, UV-C and UV-A rays, through a special filter.
Excipients only or a suspension containing 5 or 10% 2,4,6,8,10,12,14-hexadecaheptaenol palmitate were spread on the ear of the test animals, and the temperature increase resulting from the UV-induced erythema was measured with a thermoelectric thermometer after approx. 3 hours in the control animals and the test animals.

Structure (SMILES): CC=CC=CC=CC=CC=CC=CC=CCOC(=O)CCCCCCCCCCCCCCC [2,4,6,8,10,12,14-hexadecaheptaenyl palmitate]
- appearance of heat and erythema: inhibited
